The assay addresses TNAP (Homo sapiens (Human), UniProt P05186). Nature of the assay: TNAP (PPi) inhibition assay, pyrophosphate as substrate. Format: biochemical. Summed up:
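Enzyme source was conditioned serum-free medium from COS-1 cells transiently expressing tagged human TNAP, dialyzed against TBS with MgCl2/ZnCl2. Activity on natural substrate PPi at pH 7.4 read as liberated phosphate (Biomol Green).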

Turning to `COc1ccc(Br)cc1S(=O)(=O)Nc1ccn(C)n1` [Example V-9, 5-Bromo-2-methoxy-N-(1-methyl-1H-pyrazol-3-yl)-benzenesulfonamide], the IC50 (usually the concentration that inhibits the measured activity by half) was above 1000 nM. `COc1ccc(OC)c(S(=O)(=O)Nc2ccn(C)n2)c1` [Example V-10, 2,5-Dimethoxy-N-(1-methyl-1H-pyrazol-3-yl)-benzenesulfonamide] yielded an IC50 above 1000 nM.

`COc1ccc(Br)cc1S(=O)(=O)Nc1ccnn1C` [Example V-11, 5-Bromo-2-methoxy-N-(2-methyl-2H-pyrazol-3-yl)-benzenesulfonamide]: the IC50 was above 1000 nM. On to `COc1ccc(OC)c(S(=O)(=O)Nc2ccnn2C)c1` [Example V-12, 2,5-Dimethoxy-N-(2-methyl-2H-pyrazol-3-yl)-benzenesulfonamide], for which the IC50 was above 1000 nM. Regarding `COc1ccc(Br)cc1S(=O)(=O)Nc1cc(C(F)(F)F)n(C)n1` [Example V-13, 5-Bromo-2-methoxy-N-(1-methyl-5-trifluoromethyl-1H-pyrazol-3-yl)-benzenesulfonamide], the IC50 is above 1000 nM. In turn, `COc1ccc(OC)c(S(=O)(=O)Nc2cc(C(F)(F)F)n(C)n2)c1` [Example V-14, 2,5-Dimethoxy-N-(1-methyl-5-trifluoromethyl-1H-pyrazol-3-yl)-benzenesulfonamide] returned an IC50 above 1000 nM.

As for `COc1ccc(Br)cc1S(=O)(=O)Nc1nccs1` [Example V-15, 5-Bromo-2-methoxy-N-thiazol-2-yl-benzenesulfonamide], the IC50 was above 1000 nM. In the case of `COc1ccc(OC)c(S(=O)(=O)Nc2nccs2)c1` [Example V-16, 2,5-Dimethoxy-N-thiazol-2-yl-benzenesulfonamide] it was above 1000 nM; in that of `COc1ccc(Br)cc1S(=O)(=O)Nc1nnc(C)s1` [Example V-17, 5-Bromo-2-methoxy-N-(5-methyl-[1,3,4]thiadiazol-2-yl)-benzenesulfonamide], above 1000 nM.

As to `COc1ccc(OC)c(S(=O)(=O)Nc2nnc(C)s2)c1` [Example V-18, 2,5-Dimethoxy-N-(5-methyl-[1,3,4]thiadiazol-2-yl)-benzenesulfonamide], the IC50 was above 1000 nM.

Consider `COc1ccc(Br)cc1S(=O)(=O)Nc1nnc(C(F)(F)F)s1` [Example V-19, 5-Bromo-2-methoxy-N-(5-trifluoromethyl-[1,3,4]thiadiazol-2-yl)-benzenesulfonamide], for which the IC50 is 100 to 1000 nM.

In the case of `COc1ccc(OC)c(S(=O)(=O)Nc2nnc(C(F)(F)F)s2)c1` [Example V-20], the IC50 is above 1000 nM.

`COc1ccc(Br)cc1S(=O)(=O)Nc1nnc(C)o1` [Example V-21, 5-Bromo-2-methoxy-N-(5-methyl-[1,3,4]oxadiazol-2-yl)-benzenesulfonamide] came in with an IC50 above 1000 nM. With `COc1ccc(OC)c(S(=O)(=O)Nc2nnc(C)o2)c1` [Example V-22, 2,5-Dimethoxy-N-(5-methyl-[1,3,4]oxadiazol-2-yl)-benzenesulfonamide], the IC50 is above 1000 nM. In turn, `COc1ccc(OC)c(S(=O)(=O)Nc2cnccn2)c1` [Example V-23, 2,5-Dimethoxy-N-pyrazin-2-yl-benzenesulfonamide] gave an IC50 above 1000 nM.

As for `COc1ccc(Br)cc1S(=O)(=O)Nc1cccnn1` [Example V-24, 5-Bromo-2-methoxy-N-pyridazin-3-yl-benzenesulfonamide], the IC50 lay within 100 to 1000 nM.

The compound `COc1ccc(OC)c(S(=O)(=O)Nc2cccnn2)c1` [Example V-25, 2,5-Dimethoxy-N-pyridazin-3-yl-benzenesulfonamide] yielded an IC50 above 1000 nM. `COc1ccc(Br)cc1S(=O)(=O)Nc1ccnnc1` [Example V-26, 5-Bromo-2-methoxy-N-pyridazin-4-yl-benzenesulfonamide] registered an IC50 above 1000 nM.

`COc1ccc(OC)c(S(=O)(=O)Nc2ccnnc2)c1` [Example V-27, 2,5-Dimethoxy-N-pyridazin-4-yl-benzenesulfonamide] showed an IC50 above 1000 nM. The compound `COc1ccc(Br)cc1S(=O)(=O)Nc1ncccn1` [Example V-28, 5-Bromo-2-methoxy-N-pyrimidin-2-yl-benzenesulfonamide] came in with an IC50 above 1000 nM.

Compound `COc1ccc(OC)c(S(=O)(=O)Nc2ncccn2)c1` [Example V-29, 2,5-Dimethoxy-N-pyrimidin-2-yl-benzenesulfonamide] displayed an IC50 above 1000 nM. `COc1ncc(Br)cc1S(=O)(=O)Nc1cnc2ccccc2c1` [Example VI-1, 5-Bromo-2-methoxy-pyridine-3-sulfonic acid quinolin-3-ylamide] yielded an IC50 below 100 nM. With `CCN(c1cnc2ccccc2c1)S(=O)(=O)c1cc(Br)ccc1OC` [Example VII-2, 5-Bromo-2-methoxy-N-ethyl-N-(quinolin-3-yl)benzenesulfonamide], the IC50 was above 1000 nM. Turning to `CCCN(c1cnc2ccccc2c1)S(=O)(=O)c1cc(Br)ccc1OC` [Example VII-3, 5-Bromo-2-methoxy-N-propyl-N-(quinolin-3-yl)benzenesulfonamide], the IC50 is above 1000 nM. Compound `COc1ccc(Br)cc1S(=O)(=O)N(c1cnc2ccccc2c1)C(C)C` [Example VII-4, 5-Bromo-N-isopropyl-2-methoxy-N-(quinolin-3-yl)benzenesulfonamide] displayed an IC50 above 1000 nM. As for `CCCCN(c1cnc2ccccc2c1)S(=O)(=O)c1cc(Br)ccc1OC` [Example VII-5, 5-Bromo-N-butyl-2-methoxy-N-(quinolin-3-yl)benzenesulfonamide], the figure is above 1000 nM. As for `COc1ccc(Br)cc1S(=O)(=O)N(Cc1ccccc1)c1cnc2ccccc2c1` [Example VII-6, 5-Bromo-N-benzyl-2-methoxy-N-(quinolin-3-yl)benzenesulfonamide], the figure is above 1000 nM; as for `COCCN(c1cnc2ccccc2c1)S(=O)(=O)c1cc(Br)ccc1OC` [Example VII-7, 5-Bromo-2-methoxy-N-(2-methoxyethyl)-N-(quinolin-3-yl)benzenesulfonamide], above 1000 nM. Take `COc1ccc(Br)cc1S(=O)(=O)N(CCN(C)C)c1cnc2ccccc2c1` [Example VII-9, 5-Bromo-N-(2-(dimethylamino)ethyl)-2-methoxy-N-(quinolin-3-yl)benzenesulfonamide]: the IC50 is above 1000 nM. For `C=CCN(c1cnc2ccccc2c1)S(=O)(=O)c1cc(Br)ccc1OC` [Example VII-10, N-allyl-5-bromo-2-methoxy-N-(quinolin-3-yl)benzenesulfonamide], the IC50 was above 1000 nM.

Compound `C#CCN(c1cnc2ccccc2c1)S(=O)(=O)c1cc(Br)ccc1OC` [Example VII-11, 5-Bromo-2-methoxy-N-(prop-2-yn-1-yl)-N-(quinolin-3-yl)benzenesulfonamide] had an IC50 above 1000 nM. As for `COc1ccc(OC)c(S(=O)(=O)N(C)c2cnc3ccccc3c2)c1` [Example VII-12, 2,5-Dimethoxy-N-methyl-N-(quinolin-3-yl)benzenesulfonamide], the IC50 was above 1000 nM. `CCN(c1cnc2ccccc2c1)S(=O)(=O)c1cc(OC)ccc1OC` [Example VII-13, 2,5-Dimethoxy-N-ethyl-N-(quinolin-3-yl)benzenesulfonamide] displayed an IC50 above 1000 nM.

As for `COc1ccc(OC)c(S(=O)(=O)N(c2cnc3ccccc3c2)C(C)C)c1` [Example VII-14, 2,5-Dimethoxy-N-isopropyl-N-(quinolin-3-yl)benzenesulfonamide], the IC50 is above 1000 nM. On to `CCCCN(c1cnc2ccccc2c1)S(=O)(=O)c1cc(OC)ccc1OC` [Example VII-15, 2,5-Dimethoxy-N-butyl-N-(quinolin-3-yl)benzenesulfonamide], for which the IC50 is above 1000 nM.

`COc1ccc(OC)c(S(=O)(=O)N(Cc2ccccc2)c2cnc3ccccc3c2)c1` [Example VII-16, 2,5-Dimethoxy-N-benzyl-N-(quinolin-3-yl)benzenesulfonamide] came in with an IC50 above 1000 nM. The compound `COCCN(c1cnc2ccccc2c1)S(=O)(=O)c1cc(OC)ccc1OC` [Example VII-17, 2,5-Dimethoxy-N-(2-methoxyethyl)-N-(quinolin-3-yl)benzenesulfonamide] gave an IC50 above 1000 nM. The compound `COCCCN(c1cnc2ccccc2c1)S(=O)(=O)c1cc(OC)ccc1OC` [Example VII-18, 2,5-Dimethoxy-N-(3-methoxypropyl)-N-(quinolin-3-yl)benzenesulfonamide] yielded an IC50 above 1000 nM. The compound `COc1ccc(OC)c(S(=O)(=O)N(CCN(C)C)c2cnc3ccccc3c2)c1` [Example VII-19, N-(2-(Dimethylamino)ethyl)-2,5-dimethoxy-N-(quinolin-3-yl)benzenesulfonamide] had a 50% inhibitory concentration (IC50) above 1000 nM. `C=CCN(c1cnc2ccccc2c1)S(=O)(=O)c1cc(OC)ccc1OC` [Example VII-20, N-Allyl-2,5-dimethoxy-N-(quinolin-3-yl)benzenesulfonamide] registered an IC50 above 1000 nM. `C#CCN(c1cnc2ccccc2c1)S(=O)(=O)c1cc(OC)ccc1OC` [Example VII-21, 2,5-Dimethoxy-N-(prop-2-yn-1-yl)-N-(quinolin-3-yl)benzenesulfonamide] registered an IC50 above 1000 nM.

For `COc1ccc(Br)cc1S(=O)(=O)Nc1ccc(N2CCOCC2)nc1` [Example VIII-1, 5-Bromo-2-methoxy-N-(6-morpholinopyridin-3-yl)benzenesulfonamide], the IC50 is above 1000 nM. The compound `COc1ccc(OC)c(S(=O)(=O)Nc2ccc(N3CCOCC3)nc2)c1` [Example VIII-2, 2,5-Dimethoxy-N-(6-morpholinopyridin-3-yl)benzenesulfonamide] displayed an IC50 above 1000 nM.

The compound `COc1ccc(Br)cc1S(=O)(=O)Nc1ccc(N)nc1` [Example VIII-3, 5-Bromo-2-methoxy-N-(6-Amino-pyridin-3-yl)-benzenesulfonamide] yielded an IC50 above 1000 nM.

Compound `COc1ccc(OC)c(S(=O)(=O)Nc2ccc(N)nc2)c1` [Example VIII-4, 2,5-Dimethoxy-N-(6-Amino-pyridin-3-yl)-benzenesulfonamide] displayed an IC50 above 1000 nM. Turning to `CNc1ccc(NS(=O)(=O)c2cc(Br)ccc2OC)cn1` [Example VIII-5, 5-Bromo-2-methoxy-N-(6-methylamino-pyridin-3-yl)-benzenesulfonamide], the IC50 fell in the range of 100 to 1000 nM.

The record behind these values is patent publication US10370333B2 (Sanford Burnham Prebys Medical Discovery Institute, priority 2012, dated 2019).
